# According to US10087427B2, “Glycosyltransferase gene and use thereof” (SUNTORY HOLDINGS LIMITED, priority 2014, dated 2018):
# System: NmGT22 protein
# Assay: Enzyme activity of purified His-tag NmGT22 protein on flavonoid substrates (HPLC)
# Assay type: biochemical, Nemophila menziesii
# Conditions: NmGT22 protein solution, UDP-glucose, 2 mM substrate, same reaction conditions
# Description: E. coli strain BL2 introduced with pET SUMO-NmGT22 described in Example 5 was cultured using the Overnight Express Auto-induction System 1 (Novagen Inc.) in accordance with the manufacturer's recommended protocol. The transformed E. coli were cultured in 8 ml of prepared culture broth at 37° C. until the OD600 value reached 0.5 (about 4 hours). This E. coli culture broth was added to 200 ml of a culture broth as pre-culture broth followed by final culturing overnight at 25° C.
# After having been cultured overnight, the E. coli culture broth was centrifuged (1,000×g, 4° C., 10 minutes), the harvested bacterial cells were suspended in 20 ml of extract (composition: buffer solution (300 mM KCl, 50 mM KH2PO4, 5 mM imidazole) (pH 8.0), 10 μM amidinophenylmethanesulfonyl fluoride hydrochloride (APMSF)), and the E. coli were crushed by ultrasonic treatment followed by centrifuging (1,400×g, 4° C., 20 minutes) and recovering the supernatant. The supernatant was passed through a 0.45 μm filter and subjected to His-Tag purification using Profinia (Bio-Rad Corp.) in accordance with the manufacturer's recommended protocol. The resulting purified protein solution was centrifuged (7,500×g, 4° C., 15 minutes) using a centrifugal filter unit (Ultracel-10K, Amicon Ultra), and the concentrated protein solution was used as “NmGT-22 Protein Solution”. The Avanti HP-26XP centrifuge (rotor: JA-2, Beckman Coulter Inc.) was used for centrifugation.
# A reaction solution prepared by mixing 10 μl of protein solution, 2 it of 50 mM UDP-glucose, 10 μl of 1 M Tris-HCl (pH 7.5) and 1 μl of 2 mM apigenin 4′-glucoside (dissolved in 50% aqueous acetonitrile solution containing 0.1% TFA) on ice and bringing to reaction volume of 100 μl with water was held for 20 minutes at 30° C. Subsequently, 100 μl of stop buffer (90% aqueous acetonitrile solution containing 0.1% TFA) were added to stop the reaction followed by analyzing the reaction solution by high-performance liquid chromatography (Prominence, Shimadzu Corp.). Flavone was detected at 330 nm using the Shimadzu PDA SPD-M10AVP for the detector. The Shim-Pack ODS column (150 mm×4.6 mm, Shimadzu Corp.) was used for the column. A liquid A (0.1% aqueous TFA solution) and a liquid B (90% aqueous methanol solution containing 0.1% TFA) were used for elution. Elution was carried out for 10 minutes at a linear concentration gradient from an 8:2 mixture of the two solutions to a 3:7 mixture of the two solutions followed by eluting for 6 minutes using a 3:7 mixture of the two solutions. The flow rate was 0.6 ml/min.
row,Compound,product synthesized by enzyme reaction
1,O=c1cc(-c2ccc(O[C@@H]3O[C@H](CO)[C@@H](O)[C@H](O)[C@H]3O)c(O)c2)oc2cc(O)cc(O)c12 [luteolin 4′-glucoside],"Luteolin 4′,7-diglucoside was synthesized"

# Same assay, conditions: NmGT22 protein solution, UDP-glucose, 1 μl of 2 mM substrate in 100 μl, 20 minutes at 30° C.
row,Compound,reaction rate (percentage of transformed substrate)
1,O=c1cc(-c2ccc(O)c(O)c2)oc2cc(O[C@@H]3O[C@H](CO)[C@@H](O)[C@H](O)[C@H]3O)cc(O)c12 [luteolin 7-glucoside],16.10%
2,"O=c1cc(-c2ccc(O)c(O)c2)oc2cc(O)cc(O)c12 [luteolin, 3′,4′,5,7-tetrahydroxyflavone]",99.07%
3,O=c1cc(-c2ccc(O[C@@H]3O[C@H](CO)[C@@H](O)[C@H](O)[C@H]3O)cc2)oc2cc(O)cc(O)c12 [apigenin 4′-glucoside],100%
4,O=c1cc(-c2ccc(O)cc2)oc2cc(O[C@@H]3O[C@H](CO)[C@@H](O)[C@H](O)[C@H]3O)cc(O)c12 [apigenin 7-glucoside],2.69%
5,"O=c1cc(-c2ccc(O)cc2)oc2cc(O)cc(O)c12 [apigenin, 4′,5,7-trihydroxyflavone]",77.16%
